# Data as given in US10351915B2 (Berg LLC, priority 2009, dated 2019).
# Key:
# Bcl-2 = experiment: Western blot of building block components, Bcl-2 expression; assay type: cell-based
# Description: (§1) Skmel-28 melanoma cells were cultured in DMEM/F12 supplemented with 5% Fetal Bovine Serum (FBS) and 1× final concentration of Antibiotics. The cells were grown to 85% confluency and treated with building block components for 3, 6, 12 and 24 hours. The cells were then pelleted and a Western blot analysis was performed.
# (§2) In the Western Blot Analysis, the cells were pelleted in cold PBS, lysed, and the protein levels were quantified using a BCA protein assay. The whole cell lysate was loaded in a 4% loading 12% running Tris-HCl gel. The proteins were then transferred to a nitrocellulose paper then blocked with a 5% milk Tris-buffered solution for 1 hour. The proteins were then exposed to primary antibodies (Bcl-2 and Caspase-3) overnight. The nitrocellulose paper was then exposed to Pico Chemilluminescent for 5 min and the protein expression was recorded. After exposure, actin was quantified using the same method. Using ImageJ the levels of protein expression were quantified. A t-Test was used to analyze for statistical significance.
# Caspase-3 = experiment: Western blot of building block components, Caspase-3 expression; assay type: cell-based
# Description: as §1, §2
# HDFa cells = experiment: Extracellular acidification rate (ECAR), SeaHorse XF analyzer; assay type: cell-based, human; conditions: HDFa
# Description: (SeaHorse Biosciences Inc, North Billerica, Mass.).
# In this experiment, the OCR and extracellular acidification rate (ECAR) in normal cells lines were obtained in the presence and absence of CoQ10 to determine baseline values. It was observed that in its native nutrient environment, the basal OCR rates in normal cells lines are different, and are usually a function of the physiological roles of the cells in the body.
# Table 127 below describes the ECAR values (mpH/min) in HDFa cells in the presence or absence of CoQ10 under normoxic and hypoxic conditions at 5.5 mM and 22 mM glucose.
# Melanoma cells = experiment: Cell proliferation assay (cell count); assay type: cell-based
# Description: The first study examined the effect of combining 4-Hydroxy-Benzoate with Benzoquinone. Cells were incubated for 48 hours, after which a cell count was performed for the live cells. Each test group was compared to the control, and each combination groups were compared to Benzoquinone control. The compounds were statistically analyzed for the addition of Benzoquinone.
# Additional studies were performed testing additional molar ratios. For the first test 4-Hydroxybenzoic were tested at concentrations of 500 nM, 1 μM, and 50 μM. These concentrations were tested in combination with 2,3-Dimethoxy-5-methyl-p-benzoquinone (Benzo). The concentration of Benzo tested were 25 μM, 50 μM, and […]. Melanoma cells were grown to 80% confluency and seeded in 6 well plates at a concentration of 40K cells per well. The cells were treated with CoQ10, 4-Hydroxybenzoate, Benzo, and a combination of 4-Hydroxybenzoate/Benzo.
# A T-test was performed with p<0.05 as statistically significant.
# pancreatic cancer = conditions: 5 mg/kg (Group H), after 28 days
# [1] = concentration not given, 24 hours
# [2] = all concentrations and time points tested
structure (smiles),measurement,setting,value
"COc1cc(C(O)C(=O)O)ccc1O (stereo not shown) [VMA, 3-methoxy-4-hydroxymandelate]",apoptotic effect,Bcl-2; 100 nM to 100 μM,no statistically significant apoptotic effect
N[C@H](Cc1ccc(O)cc1)C(=O)O [D-Tyrosine],Caspase-3 expression,"Caspase-3; 1 μM, 12 hour",increase
same,Caspase-3 expression,"Caspase-3; 1 μM, 24 hour",increase
NC(Cc1ccccc1)C(=O)O (racemic) [DL-Phenylalanine],Bcl-2 expression,Bcl-2; [1],statistically significant decrease
same,Caspase-3 expression,"Caspase-3; concentration not given, 3 hours",statistically significant increase
N[C@H](Cc1ccccc1)C(=O)O [D-Phenylalanine],Bcl-2 expression,"Bcl-2; 10 μM, 6 hours",significant reduction
COC1=C(OC)C(=O)C(C/C=C(\C)CC/C=C(\C)CC/C=C(\C)CC/C=C(\C)CC/C=C(\C)CC/C=C(\C)CC/C=C(\C)CC/C=C(\C)CC/C=C(\C)CCC=C(C)C)=C(C)C1=O [compound 31510],ECAR,"HDFa cells; Hypoxia (5.5 mM) glucose, 50 μM",5 mpH/min
same,ECAR,"HDFa cells; Hypoxia (5.5 mM) glucose, 100 μM",5 mpH/min
same,ECAR,"HDFa cells; Hypoxia (22 mM) glucose, 50 μM",6 mpH/min
same,ECAR,"HDFa cells; Hypoxia (22 mM) glucose, 100 μM",8 mpH/min
same,ECAR,"HDFa cells; Normoxia (5.5 mM) glucose, 50 μM",6 mpH/min
same,ECAR,"HDFa cells; Normoxia (5.5 mM) glucose, 100 μM",6 mpH/min
same,ECAR,"HDFa cells; Normoxia (22 mM) glucose, 50 μM",5 mpH/min
same,ECAR,"HDFa cells; Normoxia (22 mM) glucose, 100 μM",5 mpH/min
"O=C(O)c1ccc(O)cc1 [4-Hydroxybenzoate, 4-hydroxy-benzoate]",cell number (live cells) vs control,Melanoma cells; 48 hours,significant decrease
same,cell proliferation,"Melanoma cells; HB 500 nM, 1 μM, 50 μM, p<0.05",significant decrease
CC(=O)SCCNC(=O)CCNC(=O)[C@H](O)C(C)(C)COP(=O)(O)OP(=O)(O)OC[C@H]1O[C@@H](n2cnc3c(N)ncnc32)[C@H](O)[C@@H]1OP(=O)(O)O [Acetyl-CoA],Caspase-3 expression,Caspase-3; [2],no significant observed reduction in Bcl-2 or increase in Caspase-3 expression
"Cc1ncc(CO)c(CO)c1O [Pyridoxine, pyridoxine]",Bcl-2 expression,Bcl-2; [1],significant reduction
"COc1cccc2c1C(=O)c1c(O)c3c(c(O)c1C2=O)C[C@@](O)(C(=O)CO)C[C@@H]3O[C@H]1C[C@H](N)[C@H](O)[C@H](C)O1 [Doxorubicin, reference compound]",survival,pancreatic cancer,a significant number of the animals in Group H had died
"C[C@@](O)(CCO)CC(=O)O [Mevalonic Acid, mevalonic acid]",Caspase-3 expression,Caspase-3; [2],no significant reduction in Bcl-2 expression or an increase in Caspase-3 expression
CC(=O)NCC(=O)O [Acetylglycine],Bcl-2 expression,"Bcl-2; 10 μM, 24 hour",significant decrease
"COc1cc(C(=O)O)ccc1O [Vanillic Acid, vanillic acid]",Bcl-2 expression,"Bcl-2; 500 nM, 24 hour",significantly reduce
